Source: publication PMC11173677, “Identification and Evaluation of Olive Phenolics in the Context of Amine Oxidase Enzyme Inhibition and Depression: In Silico Modelling and In Vitro Validation” (Molecules, 2024)
Read-outs that look alike come from different tables or passages of the source.

Experiments:
MAO-B [1] = test system: T1, MAO-B; assay: MAO-B activity assay in corticosteroid-stimulated BJ cells; format: cell-based, human; settings: then 50 μM compound 24 h
T1 construct: endogenous in cells; host or cells: BJ human foreskin fibroblasts stimulated with DEX or HC
Experimental: (§1) The BJ cells were subsequently incubated with 10 μM HC or 100 μM DEX to stimulate MAO expression. […] The untreated BJ cells received normal growth medium. The cells were collected, homogenised, and analysed through Western blotting where the expression of MAO-A/B was determined through immunodetection of protein subtypes.
(§2) Activity assays were commercially sourced from BioVision (Abcam, BioVision ab241031, Waltham, MA, USA) and were performed according to manufacturer’s instructions. The treatment groups were plated in duplicate on a black, flat 96-well microplate. The cells were homogenised in assay buffer using a microtube mixer at 4 °C and centrifuged at 10,000× g for 10 min. A Bradford assay was performed to determine the total protein concentration within each cell pellet (200 μg/well for BJ cells, 40 μg/well for hESC-derived neurons). Approximately 40 μL of supernatant was loaded into wells along with 10 μL of either […], or assay buffer for total MAO activity. A H2O2 standard was pipetted as supplied and 50 μL of reaction mix was pipetted into all wells. Using a CLARIOstar Plus Microplate Reader, (BMG Labtech, Ortenberg, Germany), fluorescence was measured kinetically at 25 °C for 60 min with Ex/Em = 535/587 nm.

LSD1 [2] = biological target: T2, LSD1 (Homo sapiens, UniProt O60341); assay: LSD1 fluorescence coupling enzyme assay (Reaction Biology Corporation); format: biochemical; settings: Reaction Biology Corp., 30 min pre-incubation, 10 μM histone H3(1-21)K4me2 peptide substrate; read-out: IC50, LSD1 demethylase activity
T2 construct: Reaction Biology Corporation (performed the assay)
Experimental: The inhibitory activity of HCl 489479, OLC, and OLP was measured using a fluorescence coupling enzyme assay (performed by Reaction Biology Corporation). […] All compounds were pre-incubated for 30 min with the enzyme before the addition of 10 μM histone H3(1-21)K4me2 peptide substrate to start the reaction. Fluorescence was measured using an EnVision Multimode Plate Reader at Ex/Em = 535/590.

human skin fibroblasts = test system: human skin fibroblasts; set-up: method as in PMID 37432217; settings: in comparison to untreated controls, at certain doses; cited from earlier work
MAO-B [3] = test system: T1, MAO-B; assay: MAO-B activity assay in hESC-derived neurons stimulated with ATRA; format: cell-based, human; settings: 1 μM ATRA 24 h, then TCP 5 μM, OLC 50 μM or OLP 50 μM for 24 h
Experimental: (§3) An in vitro model of MDD was designed for stem cell-derived neuronal cells through incubation of 1 μM all-trans retinoic acid (Sigma-Aldrich PHR1187, St. Louis, MO, USA). All cell treatments were conducted in duplicate and replicated using independently differentiating neuronal plates.
as §2

purified MAO-A = biological target: T3, purified MAO-A (Homo sapiens, UniProt P21397); assay: MAO-A direct screening assay (inhibitor screening kit); format: biochemical; settings: purified enzyme; read-out: IC50, inhibition of MAO-A
T3 construct: purchased Sigma-Aldrich MAK295
T3 sequence (P21397 1-527): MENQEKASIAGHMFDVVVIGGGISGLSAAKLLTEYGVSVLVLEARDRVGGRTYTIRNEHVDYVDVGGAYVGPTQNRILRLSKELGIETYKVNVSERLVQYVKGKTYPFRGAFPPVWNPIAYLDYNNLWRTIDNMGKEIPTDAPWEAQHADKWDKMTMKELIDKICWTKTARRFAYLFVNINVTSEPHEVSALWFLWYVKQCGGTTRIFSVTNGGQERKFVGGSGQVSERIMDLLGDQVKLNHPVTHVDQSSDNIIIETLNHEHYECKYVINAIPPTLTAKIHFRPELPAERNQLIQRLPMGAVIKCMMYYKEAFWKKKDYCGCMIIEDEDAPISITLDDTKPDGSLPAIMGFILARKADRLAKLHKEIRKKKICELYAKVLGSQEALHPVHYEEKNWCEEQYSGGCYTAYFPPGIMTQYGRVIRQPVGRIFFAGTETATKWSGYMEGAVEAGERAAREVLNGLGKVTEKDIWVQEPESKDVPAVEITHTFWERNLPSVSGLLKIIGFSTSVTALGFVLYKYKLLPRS
Experimental: The assays were conducted for MAO-A and MAO-B according to the manufacturer’s instructions.

MAO-A [4] = test system: T4, MAO-A; assay: MAO-A activity assay in hESC-derived neurons stimulated with ATRA; format: cell-based, human; settings: 1 μM ATRA 24 h, then TCP 5 μM, OLC 50 μM or OLP 50 μM for 24 h
T4 construct: endogenous in cells; host or cells: BJ human foreskin fibroblasts stimulated with DEX or HC
Experimental: as §3, §2

total MAO [5] = assay: Total MAO activity assay in corticosteroid-stimulated BJ cells; format: cell-based, human; settings: then 50 μM compound 24 h
Experimental: as §1, §2

MAO-A/B expression = assay: MAO-A/B protein expression in HC- or DEX-stimulated BJ cells (Western blotting); format: cell-based, human; settings: 10 μM HC 5 days or 100 μM DEX 7 days, then 50 μM compound; Western blot
Experimental: as §1

BJ cells = assay: Viability of BJ cells (CellTiter-Blue Cell Viability Assay); format: cell-based, human; settings: for IC50: Homo sapiens, BJ
Experimental: The BJ cells were seeded at densities of 10,000 cells in black flat bottom 96-well plates (Nalge Nunc, Penfield, Rochester, NY, USA) and treated with a dose–response of OLC (0–500 μM) and OLP (0–500 μM) for 24 h, 48 h, 72 h, and 7 days at 37 °C, 5% (v/v) CO2. Cell viability was measured using the Cell-Titer Blue® Assay kit (Promega, Madison, WI, USA) according to the manufacturer’s instructions. Cell-Titer Blue reagent was added to each well and incubated for 4 h at 37 °C with 5% (v/v) CO2 before the fluorescence intensity was read using the CLARIOstar Microplate Reader (BMG Labtech, Ortenberg, Germany).
A Nikon Eclipse Ts2 light microscope (Nikon Ti TS2-S-SM, Tokyo, Japan) was used to image untreated and treated BJ cells (OLP or OLC: 0–100 μM) at 4× objective magnification at 20, 44, and 120 h (Figures S1 and S2).

total MAO [6] = assay: Total MAO activity assay in hESC-derived neurons stimulated with ATRA; format: cell-based, human; settings: 1 μM ATRA 24 h, then TCP 5 μM, OLC 50 μM or OLP 50 μM for 24 h
Experimental: as §3, §2

MAO-A [7] = test system: T4, MAO-A; assay: MAO-A activity assay in corticosteroid-stimulated BJ cells; format: cell-based, human; settings: then 50 μM compound 24 h
Experimental: as §1, §2

LSD1 [8] = biological target: T2, LSD1; settings: in vitro assays; cited from earlier work

SMILES | MAO-B activity in BJ cells (MAO-B [1]; 10 μM HC 5 days) | MAO-B activity in BJ cells (MAO-B [1]; 100 μM DEX 7 days) | IC50 (LSD1 [2]) | growth capacity of human skin fibroblasts (human skin fibroblasts) | MAO-B activity in hESC-derived neurons (MAO-B [3]) | IC50 (purified MAO-A) | MAO-A activity in hESC-derived neurons (MAO-A [4]) | total MAO activity in BJ cells (total MAO [5]; 10 μM HC 5 days) | total MAO activity in BJ cells (total MAO [5]; 100 μM DEX 7 days) | MAO enzyme expression within BJ cells (MAO-A/B expression) | relative viability of BJ cells at the highest concentration (BJ cells; 500 μM) | proliferation potential of BJ cells (BJ cells; 25, 50, 75 and 100 μM, similar to untreated cells) | IC50 (BJ cells; 24 h) | IC50 (BJ cells; 48 h) | toxicity to BJ cells at the concentrations used in further experiments (BJ cells; concentrations used in further experiments (50 μM)) | viability of BJ cells at lower concentrations (BJ cells; up to 200 μM) | total MAO activity in hESC-derived neurons (total MAO [6]) | MAO-A activity in BJ cells (MAO-A [7]; 10 μM HC 5 days) | MAO-A activity in BJ cells (MAO-A [7]; 100 μM DEX 7 days) | IC50 (LSD1 [8])
C/C=C(/C=O)[C@@H](CC=O)CC(=O)OCCc1ccc(O)cc1 [OLC, oleocanthal] | downregulate | downregulate | 12 µM | significantly increased | significantly reduced | 1.9 µM | significantly reduced | downregulate | downregulate | Potent inhibition | reduction | maintained their proliferation potential | 123 µM | 111 µM | non-toxic | largely maintained | significantly reduced | downregulate | downregulate | –
CC=C(C=O)C(CC=O)CC(=O)OCCc1ccc(O)c(O)c1 (stereo in doubt) [oleacein] | – | – | – | – | – | – | – | – | – | – | – | – | – | – | – | – | – | – | – | ~2.5 µM
